Source: ChEMBL document CHEMBL5154842, “Unique Carbazole-Oxadiazole Derivatives as New Potential Antibiotics for Combating Gram-Positive and -Negative Bacteria” (J Med Chem, 2022)
Converted amounts (≈) assume the structure as drawn. The source made the active and inactive calls. No cut-off for these calls is given here.

Tests used:
Staphylococcus aureus [1] = assay: Antibacterial activity against Staphylococcus aureus 25923 assessed as inhibition of bacterial growth incubated for 24 hrs by CLSI protocol based two fold serial dilution method; format: functional
Staphylococcus aureus [2] = assay: Antibacterial activity against Staphylococcus aureus 29213 assessed as inhibition of bacterial growth incubated for 24 hrs by CLSI protocol based two fold serial dilution method; format: functional
Pseudomonas aeruginosa [3] = assay: Antibacterial activity against Pseudomonas aeruginosa assessed as inhibition of bacterial growth incubated for 24 hrs by CLSI protocol based two fold serial dilution method; format: functional
Pseudomonas aeruginosa [4] = assay: Antibacterial activity against Pseudomonas aeruginosa ATCC 27853 assessed as inhibition of bacterial growth incubated for 24 hrs by CLSI protocol based two fold serial dilution method; format: functional
Staphylococcus aureus [5] = assay: Antibacterial activity against methicillin-resistant Staphylococcus aureus N315 assessed as inhibition of bacterial growth incubated for 24 hrs by CLSI protocol based two fold serial dilution method; format: functional
Enterococcus faecalis = assay: Antibacterial activity against Enterococcus faecalis assessed as inhibition of bacterial growth incubated for 24 hrs by CLSI protocol based two fold serial dilution method; format: functional
Pseudomonas aeruginosa [6] = assay: Antibacterial activity against Pseudomonas aeruginosa ATCC 27853 assessed as change in susceptibility at sub-MIC treated over 9 serial passages measured after 9 days by resistance development assay; format: functional, organism-based; details: time 9.0 day
Staphylococcus aureus [7] = assay: Antibacterial activity against methicillin-resistant Staphylococcus aureus N315 assessed as change in susceptibility at sub-MIC treated over 9 serial passages measured after 9 days by resistance development assay; format: functional, organism-based; details: time 9.0 day
Escherichia coli [8] = assay: Antibacterial activity against Escherichia coli 25922 assessed as inhibition of bacterial growth incubated for 24 hrs by CLSI protocol based two fold serial dilution method; format: functional
Klebsiella pneumoniae = assay: Antibacterial activity against Klebsiella pneumonia assessed as inhibition of bacterial growth incubated for 24 hrs by CLSI protocol based two fold serial dilution method; format: functional
Escherichia coli [9] = assay: Antibacterial activity against Escherichia coli assessed as inhibition of bacterial growth incubated for 24 hrs by CLSI protocol based two fold serial dilution method; format: functional
Acinetobacter baumannii = assay: Antibacterial activity against Acinetobacter baumannii assessed as inhibition of bacterial growth incubated for 24 hrs by CLSI protocol based two fold serial dilution method; format: functional
Staphylococcus aureus [10] = assay: Antibacterial activity against Staphylococcus aureus assessed as inhibition of bacterial growth incubated for 24 hrs by CLSI protocol based two fold serial dilution method; format: functional
Staphylococcus aureus [11] = assay: Antibacterial activity against methicillin-resistant Staphylococcus aureus N315 assessed as inhibition of bacterial growth at 0.5 to 16 ug/ml measured after 24 hrs by microplate reader assay; format: functional, organism-based; details: dose 0.5-16 µg/ml
Cell membrane [12] = assay: Induction of inner membrane permeabilization in Pseudomonas aeruginosa ATCC 27853 assessed as increase in PI uptake by measuring increase in fluorescence intensity at 1 to 8 ug/ml incubated for 30 mins by calcein-AM/PI staining based fluorescence microscopic analysis; details: dose 1-8 µg/ml
Cell membrane [13] = assay: Induction of cell membrane disruption in Pseudomonas aeruginosa ATCC 27853 assessed as increase in nucleotides leakage at 0.5 to 6 ug/ml incubated under agitation condition by UV absorption based analysis; format: subcellular; details: dose 0.5-6 µg/ml
Cell membrane [14] = assay: Induction of outer membrane permeabilization in Pseudomonas aeruginosa ATCC 27853 assessed as increase in NPN uptake by measuring increase in fluorescence intensity at 1 ug/ml by NPN-dye based fluorescence analysis; details: dose 1.0 µg/ml
HeLa = assay: Cytotoxicity against human HeLa cells assessed as cell viability at 0.5 to 64 ug/ml incubated for 24 hrs by MTT assay; format: toxicity, cell-based; details: dose 0.5-64 µg/ml
Staphylococcus aureus [15] = assay: Antibacterial activity against methicillin-resistant Staphylococcus aureus N315 assessed as inhibition of bacterial growth at 0.25 to 64 ug/ml incubated for 24 hrs by Alamar blue assay; format: functional, organism-based; details: dose 0.25-64 µg/ml
[16] = Hemolytic activity in human RBC assessed as hemolysis at 1 to 32 ug/ml measured after 60 mins by microplate reader assay relative to control; format: toxicity, cell-based, Erythrocyte; details: red blood cells (erythrocytes), at 1 to 32 µg/mL, dose 1-32 µg/ml, read-out: Activity
HEK-293T = assay: Cytotoxicity against human HEK293T cells assessed as cell viability at 0.5 to 64 ug/ml incubated for 24 hrs by MTT assay; format: toxicity, cell-based; details: dose 0.5-64 µg/ml
Cell membrane [17] = assay: Induction of cell membrane disruption in Pseudomonas aeruginosa ATCC 27853 assessed as increase in protein leakage at 0.5 to 6 ug/ml incubated under agitation condition by Bradford assay; details: dose 0.5-6 µg/ml

| Structure (SMILES) | MIC (Staphylococcus aureus [1]) [µg/mL] | MIC (Staphylococcus aureus [2]) [µg/mL] | MIC (Pseudomonas aeruginosa [3]) [µg/mL] | MIC (Pseudomonas aeruginosa [4]) [µg/mL] | MIC (Staphylococcus aureus [5]) [µg/mL] | MIC (Enterococcus faecalis) [µg/mL] | Activity (Pseudomonas aeruginosa [6]) | Activity (Staphylococcus aureus [7]) | MIC (Escherichia coli [8]) [µg/mL] | MIC (Klebsiella pneumoniae) [µg/mL] | MIC (Escherichia coli [9]) [µg/mL] | MIC (Acinetobacter baumannii) [µg/mL] | MIC (Staphylococcus aureus [10]) [µg/mL] | further results |
| --- | --- | --- | --- | --- | --- | --- | --- | --- | --- | --- | --- | --- | --- | --- |
| Sc1nnc(COc2cccc3c2c2ccccc2n3CC2CCCC2)o1 | 1 (≈ 2.64 µM) | 8 (≈ 21.1 µM) | 256 (≈ 675 µM) | 0.25 (≈ 0.659 µM) | 0.25 (≈ 0.659 µM) | 2 (≈ 5.27 µM) | Active | Active | 2 (≈ 5.27 µM) | 1 (≈ 2.64 µM) | 1 (≈ 2.64 µM) | 1 (≈ 2.64 µM) | 256 (≈ 675 µM) |  |
| C=CCn1c2ccccc2c2c(OCc3nnc(S)o3)cccc21 | 4 (≈ 11.9 µM) | 4 (≈ 11.9 µM) | 256 (≈ 759 µM) | 0.5 (≈ 1.48 µM) | 1 (≈ 2.96 µM) | 64 (≈ 190 µM) | Active |  | 8 (≈ 23.7 µM) | 4 (≈ 11.9 µM) | 8 (≈ 23.7 µM) | 8 (≈ 23.7 µM) | 256 (≈ 759 µM) |  |
| Sc1nnc(COc2cccc3c2c2ccccc2n3CC2CC2)o1 | 4 (≈ 11.4 µM) | 8 (≈ 22.8 µM) | 256 (≈ 728 µM) | 1 (≈ 2.85 µM) | 0.5 (≈ 1.42 µM) | 8 (≈ 22.8 µM) | Active | Active | 1 (≈ 2.85 µM) | 4 (≈ 11.4 µM) | 4 (≈ 11.4 µM) | 16 (≈ 45.5 µM) | 256 (≈ 728 µM) |  |
| CCn1c2ccccc2c2c(OCc3nnn[nH]3)cccc21 | 32 (≈ 109 µM) | 32 (≈ 109 µM) | 256 (≈ 873 µM) | 1 (≈ 3.41 µM) | 2 (≈ 6.82 µM) | 4 (≈ 13.6 µM) |  |  | 64 (≈ 218 µM) | 64 (≈ 218 µM) | 8 (≈ 27.3 µM) | 64 (≈ 218 µM) | 128 (≈ 436 µM) | Activity (Staphylococcus aureus [11]): Active; Activity (Cell membrane [12]): Active; Activity (Cell membrane [13]): Active; Activity (Cell membrane [14]): Active; Activity (HeLa): Non-Toxic; Activity (Staphylococcus aureus [15]): Active; hemolysis at 1 h [16]: < 3%; Activity (HEK-293T): Non-Toxic; Activity (Cell membrane [17]): Active |
| Sc1nnc(COc2cccc3c2c2ccccc2n3CC2CCCCC2)o1 | 8 (≈ 20.3 µM) | 16 (≈ 40.7 µM) | 256 (≈ 651 µM) | 1 (≈ 2.54 µM) | 0.5 (≈ 1.27 µM) | 4 (≈ 10.2 µM) | Active | Active | 2 (≈ 5.08 µM) | 2 (≈ 5.08 µM) | 4 (≈ 10.2 µM) | 4 (≈ 10.2 µM) | 256 (≈ 651 µM) |  |
